Results: patent US20200376146A1, “NANOBIOLOGIC COMPOSITIONS FOR INHIBITING TRAINED IMMUNITY” (ICAHN SCHOOL OF MEDICINE, priority 2017, published 2020)

How the values were obtained:
[1] = Toxicity in transplant recipients (BUN, serum creatinine, histopathology); assay type: in vivo, mice; details: regimens giving 100% allograft survival for 30 days
heart allograft = experiment: Cardiac allograft survival (BALB/c hearts into C57BL/6 recipients); assay type: in vivo, mice; details: oral, 5 mg/kg every day for 15 days
[2] = Hydrolysis of (pro-)drugs in nanobiologics; assay type: physicochemical; details: 4° C. in PBS
Description: (Pro-)drug recovery and hydrolysis were determined using the following procedure: an aliquot (200 μL) of the particle solution was dried under vacuum, acetonitrile (600 μL) was added and the suspension was sonicated for 20 minutes. The suspension was centrifuged to precipitate any solids and the remaining solution was analyzed using HPLC; except for the malonate derivatives which were analyzed using SFC-MS, and Dimethylmalonate which was analyzed by GC-MS.

Row | hydrolysis of the (pro-)drug in the nanobiologic over time [2] | Structure (SMILES) | blood urea nitrogen (BUN) and serum creatinine [1] | allograft survival for 30 days (heart allograft) [%]
1 | – | CO[C@H]1C[C@@H]2CC[C@@H](C)[C@@](O)(O2)C(=O)C(=O)N2CCCC[C@H]2C(=O)O[C@H]([C@H](C)C[C@@H]2CC[C@@H](O)[C@H](OC)C2)CC(=O)[C@H](C)/C=C(\C)[C@@H](O)[C@@H](OC)C(=O)[C@H](C)C[C@H](C)/C=C/C=C/C=C/1C [Rapamycin, rapamycin] | kidney toxicity parameters show statistical differences between oral rapamycin and mTORi-HDL | 100
2 | hydrolysis was observed | CCCCCCCCCCCCCCCCCC(=O)O[C@@H]1CC[C@@H](C[C@@H](C)[C@@H]2CC(=O)[C@H](C)/C=C(\C)[C@@H](O)[C@@H](OC)C(=O)[C@H](C)C[C@H](C)/C=C/C=C/C=C(\C)[C@@H](OC)C[C@@H]3CC[C@@H](C)[C@@](O)(O3)C(=O)C(=O)N3CCCC[C@H]3C(=O)O2)C[C@H]1OC [Cis-Rapamycin, Rapamycin-C18] | – | –
